Measurements taken from patent US12606529B2, “Sulfur and amide tropolone inhibitors of nucleotidyl transferases and uses therefor” (Saint Louis University, priority 2019, dated 2026).
In brackets after ≈: the same amount, converted by molar mass. Where two headings read alike, the source gives them in different places.

Experiments:
HBV replication = HBV replication inhibition in HepDES19 cells (strand-preferential qPCR); conditions: Hepatitis B virus, HBV replication, HepDES19 cells
Protocol: Cells used for toxicity and HBV studies.
HBV replication inhibition studies. HepDES19 cells were seeded in 96-well plates at 4×10^4 cells per well in the absence of tetracycline. Test compounds in a final DMSO concentration of 1% were applied to cells 48 hours after induction of HBV replication and cells were incubated with compounds for 72 hours. Cells were washed in 200 μL of phosphate buffered saline (PBS) and lysed in 150 μL of core lysis buffer (10 mM Tris pH 7.4, 1% Tween20, 150 mM NaCl). Cells were incubated at room temperate on an orbital shaker at 350 rpm for 40 minutes. Cell lysate was transferred to a 96 well polymerase chain reaction (PCR) plate and centrifuged at 3300×g for 5 minutes. The supernatant (50 μL) from the cell lysate was transferred to a 96-well PCR plate and mixed with 20 units of micrococcal nuclease and 100 μM CaCl2. The lysate was incubated for 1 hour at 37° C., and then the nuclease was inactivated at 70° C. for ten minutes. Qiagen protease (0.005 Anson units) was added to the lysate and the mixture was incubated overnight. Qiagen protease was then inactivated at 95° C. for ten minutes.
The crude lysate was used as the template for strand-preferential quantitative polymerase chain reaction (q-PCR) analysis. Quantitative PCR was performed with 40 cycles of 95° C. for 15 s and 60° C. for 1 minute employing the Kappa Probe Force universal PCR master mix.

[1] = test system: C. neoformans var. grubii, KN99; assay: C. neoformans growth inhibition assay (limiting dilution); type: cell-based, Cryptococcus neoformans
In short: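 Starting OD650 0.001 in YNB (0.2% dextrose, 50 mM MOPS, pH 7.0) with 1% DMSO; static incubation 48 h at 35° C, then shaken and read at OD650. Growth expressed as percent of DMSO control; MIC is the lowest concentration giving 80% inhibition, triplicates over at least two independent assays.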

HSV-1 = assay: Anti-HSV-1 replication assay (Vero cells, plaque titer); type: cell-based, herpes simplex virus 1; conditions: for log reduction at 5 µM / log reduction at 1 µM / log reduction at 0.33 µM: Human alphaherpesvirus 1, Vero; for log reduction at 5 µM: compound at 5 μM, read-out: HSV-1 suppression 5 μM; for log reduction at 1 µM: compound at 1 μM, read-out: HSV-1 suppression 1 μM; for log reduction at 0.33 µM: compound at 0.33 μM, read-out: HSV-1 suppression 0.33 μM
HepDES19 cells = conditions: Table 2 amides, MTT
Protocol: (§1) Cells used for toxicity and HBV studies. […] Cells were maintained in Dulbecco's modified Eagle's medium (DMEM)/F12 media supplemented with 10% fetal bovine serum (FBS) and 1% penicillin/streptomycin (P/S) with 1 μg/mL tetracycline. Synchronized expression of HBV pgRNA was induced by removing tetracycline from the culture medium.
(§2) Cytotoxicity Assays. Qualitative assessments of cytotoxicity were done visually by inspecting the cells in the primary screening assays. […] The next day the compounds were added at 0.78 to 100 μM in a final concentration of 1% (v/v) DMSO, and the cells were incubated for 24 hours under conditions identical to those employed for the viral replication inhibition assays. Mitochondrial toxicity was measured by incubating the cells with 0.25 mg/mL thiazolyl blue tetrazolium bromide (MTT, SigmaAldrich Chemical Co.), the cultures were incubated for 60 mM, metabolites were solubilized in acidic isopropanol, and absorbance was read at 570 nm. CC50 values were calculated by non-linear curve fitting using GraphPad Prism using the three-parameter variable-response log(inhibitor)-versus-response algorithm with the bottom value set to zero.

in vitro = conditions: human, HepDES19 cells
Protocol: as §1, §2

human RNaseH1 = molecular target: T1, human RNaseH1 (Homo sapiens, UniProt O60930); assay: Biochemical inhibition of human RNaseH1 activity
T1 sequence (O60930 1-286): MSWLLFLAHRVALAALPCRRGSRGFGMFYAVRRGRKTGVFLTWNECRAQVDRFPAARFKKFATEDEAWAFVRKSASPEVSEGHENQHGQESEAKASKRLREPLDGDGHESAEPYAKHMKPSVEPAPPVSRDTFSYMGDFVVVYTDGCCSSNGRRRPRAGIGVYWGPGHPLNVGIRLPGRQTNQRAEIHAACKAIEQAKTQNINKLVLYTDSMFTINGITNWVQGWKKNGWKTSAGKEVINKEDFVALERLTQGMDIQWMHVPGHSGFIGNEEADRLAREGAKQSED
In short: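 Human enzyme (0.3 μg) with 100 nM RNA:DNA molecular-beacon substrate, 50 mM HEPES pH 8.0, 100 mM NaCl, 2 mM TCEP, compounds 0 to 500 μM, 5% DMSO; started with 5 mM MgCl2, fluorescence read at 37° C. HBV enzyme (C-terminally truncated MBP-HRHgtCΔ5) run in FRET format, monitored 90 min at 37° C., initial rates calculated.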

E. coli = assay: Bacterial growth inhibition (E. coli); type: cell-based; conditions: Escherichia coli
[2] = molecular target: HBV RNaseH (MBP-HRHgtCΔ5) (Hepatitis B virus genotype C subtype ayr, UniProt Q69028); assay: Biochemical inhibition of HBV RNaseH (FRET-based RNaseH assay); set-up: a genotype C isolate which lacks the C-terminal 35 amino acids of the HBV RNaseH domain that are predicted to be unstructured; made in house; conditions: HBV RNaseH IC50 (μM), Table 2 amides
Chain of HBV RNaseH (MBP-HRHgtCΔ5) (Q69028 691-808, stated change not applied): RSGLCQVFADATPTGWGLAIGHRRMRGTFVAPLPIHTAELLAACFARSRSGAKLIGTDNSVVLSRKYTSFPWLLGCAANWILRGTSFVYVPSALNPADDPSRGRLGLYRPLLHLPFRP
Protocol: Biochemical inhibition of human RNaseH1 activity. Quantitative inhibition of the human RNaseH1 in the biochemical assays was assessed using a molecular beacon assay as described previously (Edwards et al., 2017). Recombinant human RNaseH 1 (0.3 μg) was incubated with 100 nM RNA:DNA substrate, 50 mM HEPES pH 8.0, 100 mM NaCl, 2 mM Tris(2-carboxyethyl)phosphine hydrochloride (TCEP), 0.05% Tween20, 5 units of RNaseOut, test compounds (0 to 500 μM), and 5% DMSO in a 100 μL reaction volume. The substrate was formed by annealing a complementary RNA oligonucleotide to a hairpin DNA oligonucleotide to hold the hairpin DNA oligonucleotide in an open conformation. The DNA oligonucleotide has a 5′ fluorescein reporter and a 3′ black hole quencher. […] Reactions were initiated with 5 mM MgCl2 and fluorescence was read using a Synergy HTS multi-mode plate reader at 37° C. […] Quantitative inhibition of the human RNaseH1 in biochemical assays was assessed using a FRET-based RNaseH assay under conditions previously reported for an RNaseH molecular beacon assay (Edwards et al., 2017). […] Cleavage of the RNA strand released the fluorescein from quenching, increasing fluorescence. Reactions were monitored for 90 min at 37° C. in a plate reader and initial reaction rates were calculated. […]

HSV-2 = assay: Anti-HSV-2 replication assay (Vero cells, plaque titer); type: cell-based, herpes simplex virus 2; conditions: Table 3 sulfur compounds; compound at 5 μM
Protocol: HSV strains and cells used for HSV studies. […] HSV-1 and HSV-2 are de-identified clinical isolates from the Saint Louis University Hospital. Stocks were prepared after a single passage in cell culture and were titered by standard plaque assay (Knipe and Spang, 1982). Wild-type HSV-2 was laboratory strain 333. The TK-deficient mutant of HSV-2 strain 333, ΔTK−, contains a 180-bp KpnI-KpnI deletion in the UL23 open reading frame that abrogates TK activity (McDermott, et al, 1984). ΔTK− was the generous gift of Jim Smiley. Virus stocks were grown and titered on Vero cells (Morrison and Knipe, 1996).
Anti-HSV-1 and —HSV-2 replication assay. Compounds to be screened were diluted in PBS supplemented to contain 2% newborn calf serum and 1% glutamine and added in 100 μL volume to confluent cell monolayers in 24-well cluster plates Immediately thereafter HSV-1 and HSV-2, diluted in the supplemented PBS medium, were added to the wells in 50 μl volume such that the final concentration of compound was 50 μM and 5 μM and the multiplicity of infection was 0.1. The plates were incubated at 37° C. for 1 hour and then virus-containing inoculum was removed and the wells were washed once in PBS. Compounds, diluted to 50 μM and 5 μM in DMEM supplemented to contain 2% newborn calf serum and 1% each penicillin/streptomycin, were added at 0.5 mL/well. Plates were incubated at 37° C. an additional 23 hr, and then the plates were visually inspected through a phase contrast microscope for cytopathic effect, and for toxic effect. […] The entire contents of each well were collected by scraping. Samples were frozen at −80° C., and then subsequently thawed, sonicated, and infectious virus titer was determined by standard plaque assay on Vero cell monolayers. Because the compounds were dissolved at 10 mM in 100% DMSO, equivalent dilutions of DMSO were added to additional wells as a control for effects of the diluent. Each experiment was repeated once.

[3] = Table 2 amides, 48 h, 35° C., tested 0.19 to 50 μM, read-out: C. neoformans MIC80
[4] = Table 2 amides, values separated by / are repeats
[5] = Cryptococcus neoformans, 48 h, Table 2 amides, 48 h, 35° C., tested 0.19 to 50 μM, read-out: C. neoformans MIC80
[6] = Table 2 amides, read-out: HuRH1 IC50
[7] = HepDES19, read-out: HBV EC50, Table 3 sulfur compounds
[8] = Cryptococcus neoformans, 48 h, Table 3 sulfur compounds, 48 h, 35° C., read-out: C. neoformans MIC80
[9] = Table 3 sulfur compounds, values separated by / are repeats
[10] = Table 3 sulfur compounds, read-out: Hu RNaseH IC50
[11] = CC50, Table 3 sulfur compounds, MTT

| SMILES | log reduction at 5 µM (HSV-1; [4]) | MIC80 [1, 5] [µM] | IC50 (human RNaseH1; [6]) [µM] | CC50 at 24 h (in vitro; CC50 (μM), Table 2 amides, MTT) [µM] | EC50 (HBV replication; [7]) [µM] | MIC80 [1, 8] [µM] | log reduction at 1 µM (HSV-1; [9]) | log reduction at 5 µM (HSV-1; [9]) | IC50 (human RNaseH1; [10]) [µM] | HSV-2 suppression 5 μM (HSV-2) [log10] | CC50 at 24 h (in vitro; [11]) [µM] | also measured |
| --- | --- | --- | --- | --- | --- | --- | --- | --- | --- | --- | --- | --- |
| Cc1cc(O)c(=O)c(O)cc1C(=O)N1CCNCC1 [compound 391] | 0.29 | – | – | – | – | – | – | – | – | – | – | EC50 (HBV replication; HepDES19, 72 h, Table 2 amides, plus-polarity DNA, 72 h): 0.46 ± 0.2 µM; MIC80 [1, 3]: 40 µM (≈ 10.6 µg/mL); CC50 (HepDES19 cells): 37.5 ± 4.8 µM; CC50 at 24 h (in vitro; CC50): > 20 µM |
| Cc1cc(O)c(=O)c(O)cc1C(=O)N1CCNCC1 [compound 404] | – | – | – | – | – | – | – | – | – | – | – | MIC80 [1, 3]: 9 µM (≈ 2.38 µg/mL); Reduction of HSV-1 titers / suppression of HSV-1 replication at 5 μM (HSV-1; 5 μM, plaque forming units (PFU)/ml): undetectable; CC50 (HepDES19 cells): 4.5 ± 1.4 µM |
| Cc1cc(O)c(=O)c(O)cc1C(=O)NCCc1ccccc1 [compound 710] | 1.69 | 2.5 (≈ 0.748 µg/mL) | 32.3 ± 3.2 | 4.5 ± 3 | – | – | – | – | – | – | – | log reduction at 1 µM (HSV-1; [4]): 0.15; MIC80 (E. coli): 30 µM (≈ 8.98 µg/mL) |
| Cc1cc(O)c(=O)c(O)cc1C(=O)NCc1ccc(OC(F)(F)F)cc1 [compound 804] | 1.75 | 6.8 (≈ 2.51 µg/mL) | 802 ± 397 | 30.1 ± 18 | – | – | – | – | – | – | – | IC50 [2]: 285 ± 226 µM; log reduction at 0.33 µM (HSV-1; Table 2 amides): 0.191; log reduction at 1 µM (HSV-1; [4]): 0.292 |
| Cc1cc(O)c(=O)c(O)cc1C(=O)Nc1ccc(OCc2ccccc2)cc1 [compound 837] | 4.09 | 4.5 (≈ 1.7 µg/mL) | 625 ± 451 | 8.7 ± 3.4 | – | – | – | – | – | – | – | IC50 [2]: 118 ± 88.7 µM |
| Cc1ccc(Sc2cccc(O)c(=O)c2O)cc1 [compound 838] | – | – | – | – | 17 | 1 (≈ 0.26 µg/mL) | 0.05 | 5.33 | 100 | 5.09 | 18.6 | – |
| O=c1c(O)cccc(Sc2cccc3ccccc23)c1O [compound 839] | – | – | – | – | 50 | 17 (≈ 5.04 µg/mL) | -0.1 | 3.21 | 201 | 4.2 | 35.1 | – |
| CCCCCCSc1cccc(O)c(=O)c1O [compound 840] | – | – | – | – | 50 | 1 (≈ 0.254 µg/mL) | 1.52 | 3.69 | 72.8 | 5.59 | 21.5 | MIC80 ([1]; Cryptococcus neoformans, read-out: MIC80 against C. neoformans): ≤ 1 µM; log reduction at 0.33 µM (HSV-1; [9]): 0.271 |
